Results published in US8623846B2, “Diazeniumdiolate cyclohexyl derivatives” (Merck Sharp & Dohme Corp., priority 2010, dated 2014).

System: Male beagle dogs
Assay: canine telemetry protocol, blood pressure reduction efficacy
Assay type: in vivo
Settings: change from baseline, 3 mg/kg oral gavage; for ΔPP (mm Hg) 1-6 h / ΔPP (mm Hg) 6-12 h / ΔPP (mm Hg) 12-18 h: pulse pressure; for ΔSBP (mm Hg) 1-6 h / ΔSBP (mm Hg) 6-12 h / ΔSBP (mm Hg) 12-18 h: systolic blood pressure
Method: Compounds of the invention were evaluated for blood pressure reduction efficacy using the following canine telemetry protocol described below.
Male beagle dogs (approximately 1-3 years old) with a body weight of between 10 and 16 kg were surgically implanted with DSI radiotelemetry devices (model: TL11M2-D70-PCT). Briefly, under an inhalant anesthesia, isoflurane/oxygen mixture (1-3.5%/to effect), the body of the telemetry device was positioned and secured intra-abdominally. Subsequently, the arterial catheter of the telemetry device was passed subcutaneously to the inguinal area and introduced into the femoral artery and advanced to the level of the descending aorta. The catheter was secured with 2-0 silk ligatures. The muscle and underlying fascia was closed over the catheter using absorbable suture and the skin was closed using non-absorbable suture. The animals were allowed a minimum recovery period of 2 weeks between surgery and the evaluation of test compounds.
Compound evaluation consisted of a 3 day paradigm at a 3 mg/kg dose. On the first day, no compounds were administered during a 24 hour period of baseline data collection. Blood pressure and heart rate data were collected continuously for one minute periods at 10 minute intervals. On the days of compound administration half the animals received test article with the other half receiving the vehicle used for compound formulation. All test materials were administered by oral gavage in a volume of 1 mL/kg. Data are expressed either as raw values (mm Hg or beats per minute) or as the change from baseline (average value for about 12 hours in low activity period prior to dosing). Change is SBP (systolic blood pressure) and PP (pulse pressure) over time is shown below: […]

**Q.** With `CCN(/[N+]([O-])=N/O[C@H]1CC[C@@H](C(=O)O)CC1)C(C)(C)C` [Example 1, Cis-4-({[(1Z)-2-tert-butyl-2-ethyl-1-oxido-1λ^5-diazan-1-ylidene]amino}oxy)-cyclohexanecarboxylic acid] as the compound, how does the “ΔPP (mm Hg) 1-6 h” value read?
**A.** −1 mm Hg

**Q.** What about the “ΔPP (mm Hg) 6-12 h” value of the same compound?
**A.** −6 mm Hg

**Q.** What about the “ΔPP (mm Hg) 12-18 h” value of the same compound?
**A.** −1 mm Hg

**Q.** What about the “ΔSBP (mm Hg) 1-6 h” value of the same compound?
**A.** −9 mm Hg

**Q.** What about the “ΔSBP (mm Hg) 6-12 h” value of the same compound?
**A.** −5 mm Hg

**Q.** And the “ΔSBP (mm Hg) 12-18 h” value?
**A.** −1 mm Hg

**Q.** For `CCN(/[N+]([O-])=N/O[C@H]1CC[C@H](C(=O)O)CC1)C(C)(C)C` [Example 2, Trans-4-({[(1Z)-2-tert-butyl-2-ethyl-1-oxido-1λ^5-diazan-1-ylidene]amino}oxy)-cyclohexanecarboxylic acid], which “ΔPP (mm Hg) 1-6 h” value is on record?
**A.** −9 mm Hg

**Q.** And the “ΔPP (mm Hg) 6-12 h” value?
**A.** −9 mm Hg

**Q.** And the “ΔPP (mm Hg) 12-18 h” value?
**A.** −7 mm Hg

**Q.** And the “ΔSBP (mm Hg) 1-6 h” value?
**A.** −14 mm Hg

**Q.** What about the “ΔSBP (mm Hg) 6-12 h” value of the same compound?
**A.** −10 mm Hg

**Q.** What about the “ΔSBP (mm Hg) 12-18 h” value of the same compound?
**A.** −9 mm Hg

**Q.** How did the “ΔPP (mm Hg) 1-6 h” value turn out when `CN(/[N+]([O-])=N/O[C@H]1CC[C@@H](C(=O)O)CC1)C(C)(C)C` [Example 3, Cis-4-({[(1Z)-2-tert-butyl-2-methyl-1-oxido-1λ^5-diazan-1-ylidene]amino}oxy)-cyclohexanecarboxylic acid] was run?
**A.** −7 mm Hg

**Q.** What about the “ΔPP (mm Hg) 6-12 h” value of the same compound?
**A.** −8 mm Hg

**Q.** And the “ΔPP (mm Hg) 12-18 h” value?
**A.** −5 mm Hg

**Q.** What about the “ΔSBP (mm Hg) 1-6 h” value of the same compound?
**A.** −8 mm Hg

**Q.** What about the “ΔSBP (mm Hg) 6-12 h” value of the same compound?
**A.** −10 mm Hg

**Q.** And the “ΔSBP (mm Hg) 12-18 h” value?
**A.** −5 mm Hg

**Q.** What does the source list for `CN(/[N+]([O-])=N/O[C@H]1CC[C@H](C(=O)O)CC1)C(C)(C)C` [Example 6, Trans-4-({[(1Z)-2-tert-butyl-2-methyl-1-oxido-1λ^5-diazan-1-ylidene]amino}oxy)-cyclohexanecarboxylic acid]?
**A.** ΔPP (mm Hg) 1-6 h: −12 mm Hg; ΔPP (mm Hg) 6-12 h: −4 mm Hg; ΔPP (mm Hg) 12-18 h: −2 mm Hg; ΔSBP (mm Hg) 1-6 h: −18 mm Hg; ΔSBP (mm Hg) 6-12 h: −4 mm Hg; ΔSBP (mm Hg) 12-18 h: −2 mm Hg

**Q.** Which results are given for `CCCCN(/[N+]([O-])=N/O[C@H]1CC[C@H](C(=O)O)CC1)C(C)(C)C` [Example 8, Trans-4-({[(1Z)-2-butyl-2-tert-butyl-1-oxido-1λ^5-diazan-1-ylidene]amino}oxy)-cyclohexanecarboxylic acid]?
**A.** ΔPP (mm Hg) 1-6 h: −11 mm Hg; ΔPP (mm Hg) 6-12 h: −15 mm Hg; ΔPP (mm Hg) 12-18 h: −12 mm Hg; ΔSBP (mm Hg) 1-6 h: −14 mm Hg; ΔSBP (mm Hg) 6-12 h: −14 mm Hg; ΔSBP (mm Hg) 12-18 h: −8 mm Hg
